The values that follow come from US4939177A, “Use of avarol for the control of AIDS and ARC” (Merz + Co. GmbH & Co., priority 1986, dated 1990).

The test system of assay [1] is mouse leukemia cells L5178-Y. To be noted: in vitro and in vivo; cited from earlier work.
The test system of another assay is herpes simplex virus. To be noted: in vitro, cultures of herpes simplex virus; cited from earlier work.
Assay [2] relates to L5178y mouse lymphoma cells. The assay can be described thus: L5178y cell growth. It counts as cell-based. The following applies: Mus musculus, L5178Y, absence of Avarol. How it is done:
mouse lymphoma cells were grown in roller tube cultures in Eagle's minimum essential medium, supplemented with 10% horse serum (Muller et al., Cancer Res. 39: 1102-1107; 1979 and Muller et al. Cancer Res. 45: 4822-4826; 1985). […] The cell growth was determined by cell count with a computer supported cell-counter (128-channel counter; Cytocomp, system Michaelis: BIOTRON-Medizinelektronik, Mainz; West Germany). The ED50 (±SD) was estimated by logit regression (L. Sachs, […], Springer-Verlag, Berlin 1984). The mathematical evaluation of the fractional inhibitory concentration indices (FIC indices) of Avarol/Avarone-DDC combinations was performed according to published equations and experimental conditions (Muller et al., Cancer Lett. 1: 127-132; 1976; and Phillips et al., Antimicrob. Agents Chemother. 9: 736-740, 1976). […] In this set of experiments, […] cells were incubated with Avarol in the absence or presence of the established SODase inhibitor DDC.

For assay [3], the system named is DTH to oxazolone in NMRI mice. The assay can be described thus: Contact allergy to oxazolone. Format: in vivo, mouse. The following applies: 30 mg/kg per os. As for the experimental part:
Allergic contact dermatitis against oxazolone was produced according to the method of Asherson and Ptak (Immunol. 15: 405-416; 1968) as well as those of Bure and Degrand (Agents and Actions 9: 534; 1979). Male NMRI mice (20-22 g; 10/group) were sensitized with 100 μl of a 2% oxazolone in acetone solution onto the shaved abdomen (day 0). Animals were treated with avarol (i.p.) daily from day -1 to +2 or from day +6 to +8; control group was treated with deoxymethasone (Casella-Hoechst) as a standard per os at a daily dose of 30 mg/kg for the same period of time as for avarol. Seven days after sensitization 10 μl of a 3% oxazolane (this concentration was previously found to give more reproducible results than the lower 2% concentration) solution were topically applied onto the inner side of one ear, whereas the other ear received only acetone. […] Treated groups were compared with controls using the U-test.

In the case of `CC1=CCC[C@H]2[C@](C)(CC3=CC(=O)C=CC3=O)[C@@H](C)CC[C@]12C` [Avarone], the antileukemic action entry in assay [1] is “antileukemic action”. Besides, in the assay on herpes simplex virus, the virostatic action result is recorded as “certain virostatic action in vitro”.
In general, inhibition refers to the drop in the measured response relative to a control, in per cent. As to `CCN(CC)C(=S)S` [DDC, diethyldithiocarbamate, reference compound], the inhibition at 1.46 µM in assay [2] (DDC 1.46 μM) was found to be 26%. Also, the inhibition at 1.71 µM in assay [2] (DDC 1.71 μM) turned out to be 38%.
As to `C[C@@H]1C[C@H]2[C@@H]3CCC4=CC(=O)C=C[C@]4(C)[C@@]3(F)[C@@H](O)C[C@]2(C)[C@H]1C(=O)CO` [Deoxymethasone], the “influence on DTH reaction to oxazolone, in words” value in assay [3] (both schedules) is on record as “significant immunosuppressive influence”. The “24 hours increase in ear thickness” value in assay [3] (day +6 to +8, control 18.5±3.7) was found to be 10.9 ± 6.1 mg; in assay [3] (day -1 to +2, control 22.3±5.6), 10.2 ± 6.0 mg.
